The record followed here is US7148245B2, “Biphenyl derivatives substituted with an aromatic or heteroaromatic radical, and pharmaceutical and cosmetic compositions containing them” (Galderma Research & Development, priority 1997, dated 2006).

As usually defined, the melting point is the temperature of the solid-liquid transition.

`COCOc1ccc(-c2ccc3c(c2)C(C)(C)CCC3(C)C)cc1-c1ccc(C(=O)O)cc1` returned a melting point of 183 to 185 °C. Consider `CC1(C)CCC(C)(C)c2cc(C3C=C(c4ccccc4)C=CC3(OCC(=O)O)C(=O)O)ccc21` (stereo not shown) [Example 54, 4′-Carboxymethoxy-3′-(5,5,8,8-tetramethyl-5,6,7,8-tetrahydro-2-naphthyl)biphenyl-4′-carboxylic acid], for which the melting point is 279 to 281 °C. `CC1(C)CCC(C)(C)c2cc(-c3cc(-c4ccc(C(=O)O)cc4)ccc3C(=O)O)ccc21` registered a melting point of 343 °C. On to `CC1(C)CCC(C)(C)c2cc(-c3cc(-c4ccc(C(=O)O)c(O)c4)ccc3-c3ccccc3)ccc21` [Example 46, 3″-Hydroxy-2′-(5,5,8,8-tetramethyl-5,6,7,8-tetrahydro-2-naphthyl)-[1,1′;4′,1″]terphenyl-4″-carboxylic acid], for which the melting point lay in the range of 266 to 268 °C. In turn, `CC1(C)CCC(C)(C)c2cc(-c3cc(-c4ccc(C(=O)O)cc4)ccc3OCCCCCCCO)ccc21` [Example 4, 4-[4-(7-Hydroxyheptyloxy)-3-(5,6,7,8-tetrahydro-5,5,8,8-tetramethyl-2-naphthyl)phenyl]benzoic acid] had a melting point of 168 to 172 °C. `COCOc1ccccc1-c1ccc(-c2ccc(C(=O)O)cc2)cc1-c1ccc2c(c1)C(C)(C)CCC2(C)C` [Example 21, 2-Methoxymethoxy-2′-(5,5,8,8-tetramethyl-5,6,7,8-tetrahydro-2-naphthyl)-[1,1′;4′,1″]terphenyl-4″-carboxylic acid] registered a melting point of 218 to 221 °C. For `COCOCc1cc(-c2ccc(C(=O)O)cc2)cc(-c2ccc3c(c2)C(C)(C)CCC3(C)C)c1` the value was 165 °C; for `CC1(C)CCC(C)(C)c2cc(-c3cc(-c4ccc(C(=O)O)cc4)ccc3-c3ccccc3)c(O)cc21`, 273 °C. On to `Cc1cc2c(cc1-c1cc(-c3ccc(C(=O)O)cc3)ccc1-c1ccccc1)C(C)(C)CCC2(C)C` [Example 36, 2′-(3,5,5,8,8-Pentamethyl-5,6,7,8-tetrahydro-2-naphthyl)-[1,1′;4′,1″]terphenyl-4″-carboxylic acid], for which the melting point was determined as 217 °C. Molecule `COc1cccc(-c2ccc(-c3ccc(C(=O)O)cc3)cc2-c2ccc3c(c2)C(C)(C)CCC3(C)C)c1` [Example 20, 3-Methoxy-2′-(5,5,8,8-tetramethyl-5,6,7,8-tetrahydro-2-naphthyl)-[1,1′;4′,1″]terphenyl-4″-carboxylic acid] yielded a melting point of 258 to 259 °C. `CC1(C)CCC(C)(C)c2cc(-c3cc(-c4ccc(C(=O)O)cc4)ccc3OCCCCCCO)ccc21` [Example 3, 4-[4-(6-Hydroxyhexyloxy)-3-(5,6,7,8-tetrahydro-5,5,8,8-tetramethyl-2-naphthyl)phenyl]benzoic acid] gave a melting point of 200 to 201 °C. As to `CC1(C)CCC(C)(C)c2cc(-c3cc(-c4ccc(C(=O)O)cc4)ccc3OCc3ccccc3)ccc21` [Example 9, 4-[4-Benzyloxy-3-(5,6,7,8-tetrahydro-5,5,8,8-tetramethyl-2-naphthyl)phenyl]benzoic acid], the melting point lay in the range of 241 to 244 °C.

`COCOc1c(-c2ccc(C(=O)O)cc2)cccc1-c1ccc2c(c1)C(C)(C)CCC2(C)C` came in with a melting point of 176 °C.

With `COc1c(-c2ccc(C(=O)O)cc2)cccc1-c1ccc2c(c1)C(C)(C)CCC2(C)C`, the melting point is 205 °C. For `CC1(C)CCC(C)(C)c2cc(-c3cc(-c4ccc(C(=O)O)cc4)ccc3OCCN3CCOCC3)ccc21` [Example 12, 4′-(2-Morpholin-4-ylethoxy)-3′-(5,5,8,8-tetramethyl-5,6,7,8-tetrahydro-2-naphthyl)biphenyl-4-carboxylic acid] the value was 270 to 272 °C; for `CC1(C)CCC(C)(C)c2cc(-c3ccc(-c4ccccc4)c(-c4ccc(C(=O)O)cc4)c3)ccc21` [Example 28, 4′-(5,5,8,8-Tetramethyl-5,6,7,8-tetrahydro-2-naphthyl)-[1,1′;2′,1″]terphenyl-4″-carboxylic acid], 258 to 262 °C; for `CC1(C)CCC(C)(C)c2cc(-c3cc(-c4ccc(C(=O)O)cc4)ccc3OCCCCCC(=O)O)ccc21` [Example 56, 4′-(5-Carboxypentyloxy)-3′-(5,5,8,8-tetramethyl-5,6,7,8-tetrahydro-2-naphthyl)biphenyl-4-carboxylic acid], 245 °C. `CC1(C)CCC(C)(C)c2cc(-c3cc(CO)cc(-c4ccc(C(=O)O)cc4)c3)ccc21` displayed a melting point of 213 °C. Molecule `CC1(C)CCSc2cc(-c3cc(-c4ccc(C(=O)O)cc4)ccc3-c3ccccc3)ccc21` displayed a melting point of 261 °C. Regarding `CC1(C)CCC(C)(C)c2cc(-c3cc(-c4ccc(C(=O)O)cc4)ccc3OCCCCCCCCCO)ccc21` [Example 6, 4-[4-(9-Hydroxynonyloxy)-3-(5,6,7,8-tetrahydro-5,5,8,8-tetramethyl-2-naphthyl)phenyl]benzoic acid], the melting point was in the range of 147 to 150 °C. The molecule `COCOc1cc(C(=O)O)ccc1-c1ccc(-c2ccccc2)c(-c2ccc3c(c2)C(C)(C)CCC3(C)C)c1` [Example 43, 2″-Methoxymethoxy-2′-(5,5,8,8-tetramethyl-5,6,7,8-tetrahydro-2-naphthyl)-[1,1′;4′,1″]terphenyl-4″-carboxylic acid] came in with a melting point of 204 to 206 °C. Molecule `CC1(C)CCC(C)(C)c2cc(-c3cc(-c4ccc(C(=O)O)cc4O)ccc3-c3ccccc3)ccc21` [Example 42, 2″-Hydroxy-2′-(5,5,8,8-tetramethyl-5,6,7,8-tetrahydro-2-naphthyl)-[1,1′;4′,1″]terphenyl-4″-carboxylic acid] registered a melting point of 282 to 284 °C.

Molecule `CC1(C)CCC(C)(C)c2cc(-c3cc(-c4ccc(C(=O)O)cc4)ccc3OCCCCCCCCO)ccc21` [Example 5, 4-[4-(8-Hydroxyoctyloxy)-3-(5,6,7,8-tetrahydro-5,5,8,8-tetramethyl-2-naphthyl)phenyl]benzoic acid] showed a melting point of 155 to 160 °C. `COc1ccccc1-c1ccc(-c2ccc(C(=O)O)cc2)cc1-c1ccc2c(c1)C(C)(C)CCC2(C)C` [Example 23, 2-Methoxy-2′-(5,5,8,8-tetramethyl-5,6,7,8-tetrahydro-2-naphthyl)-[1,1′;4′,1″]terphenyl-4″-carboxylic acid] yielded a melting point of 239 to 243 °C. Take `CCOC(=O)CCCCCOc1ccc(-c2ccc(C(=O)O)cc2)cc1-c1ccc2c(c1)C(C)(C)CCC2(C)C` [Example 55, 4′-(5-Ethoxycarbonylpentyloxy)-3′-(5,5,8,8-tetramethyl-5,6,7,8-tetrahydro-2-naphthyl)biphenyl-4-carboxylic acid]: the melting point was 177 °C. Under `CC1(C)CCC(C)(C)c2cc(-c3cc(-c4ccc(C(=O)O)cc4)ccc3-c3ccccc3)ccc21` [Example 14, 2′-(5,5,8,8-Tetramethyl-5,6,7,8-tetrahydro-2-naphthyl)-[1,1′;4′,1″]terphenyl-4″-carboxylic acid] stands 287 to 288 °C. As to `COCOc1cccc(-c2ccc(-c3ccc(C(=O)O)cc3)cc2-c2ccc3c(c2)C(C)(C)CCC3(C)C)c1` [Example 18, 3-Methoxymethoxy-2′-(5,5,8,8-tetramethyl-5,6,7,8-tetrahydro-2-naphthyl)-[1,1′;4′,1″]terphenyl-4″-carboxylic acid], the melting point was determined as 212 °C. In turn, `CC1(C)CCC(C)(C)c2cc(-c3cc(-c4ccc(C(=O)O)cc4)ccc3-c3ccccc3O)ccc21` [Example 22, 2-hydroxy-2′-(5,5,8,8-tetramethyl-5,6,7,8-tetrahydro-2-naphthyl)-[1,1′;4′,1″]terphenyl-4″-carboxylic acid] had a melting point of 265 to 269 °C. With `CC1(C)CCC(C)(C)c2cc(-c3cc(-c4ccc(C(=O)O)cc4)ccc3OCC(O)CO)ccc21` (racemic) [Example 10, 4′-(2,3-Dihydroxypropoxy)-3′-(5,5,8,8-tetramethyl-5,6,7,8-tetrahydro-2-naphthyl)biphenyl-4-carboxylic acid], the melting point was 258 °C. For the molecule `CC1(C)CCC(C)(C)c2cc(-c3cc(-c4ccc(C(=O)O)nc4)ccc3-c3ccccc3)ccc21` [Example 48, 5-[2-(5,5,8,8-Tetramethyl-5,6,7,8-tetrahydro-2-naphthyl)biphenyl-4-yl]-2-pyridinecarboxylic acid], the melting point is 222 to 224 °C. For `CCCOc1cc2c(cc1-c1cc(-c3ccc(C(=O)O)cc3)ccc1-c1ccccc1)C(C)(C)CCC2(C)C` [Example 40, 2′-(3-Propyloxy-5,5,8,8-tetramethyl-5,6,7,8-tetrahydro-2-naphthyl)-[1,1′;4′,1″]terphenyl-4″-carboxylic acid], the melting point turned out to be 234 °C.
